According to patent publication US10219516B2, “Molecules having pesticidal utility, and intermediates, compositions, and processes, related thereto” (priority 2015, dated 2019):

Assays:
Format in all cases: in vivo
[1] = tested on: Yellow Fever Mosquito (Aedes aegypti, AEDSAE); assay: Bioassay on Yellow Fever Mosquito (YFM), 96-well plate larval assay; details: Species YFM (Yellow Fever Mosquito)
Outline: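 Compound stocks at 4000 ppm in DMSO were diluted with 90:10 water/acetone, and 15 μL aliquots were dispensed into six replicate plates. About 1-day-old larvae in liver-powder water were added per well. Plates were covered and held at room temperature for 3 days before each well was scored for mortality.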

[2] = tested on: Cabbage Looper (Trichoplusia ni, TRIPNI); assay: Bioassay on Cabbage Looper (CL), 128-well diet tray assay; details: Trichoplusia ni; Species CL (Cabbage Looper); read-out: CL (Biological Results, rating)
Outline: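 Second-instar larvae, one to five per well, were placed on artificial diet surface-treated with 50 μg/cm^2 test molecule applied in 90:10 acetone-water and dried, eight wells per molecule. Trays were covered, vented and held at 25° C., 14:10 light-dark for five to seven days; percent mortality per well was averaged.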

[3] = tested on: Beet Armyworm (Spodoptera exigua, LAPHEG); assay: Bioassay on Beet Armyworm (BAW), 128-well diet tray assay; details: Species BAW (Beet Armyworm), read-out: BAW (Biological Results, rating)
Outline: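 Diet in each of eight wells received 50 μg/cm^2 of test molecule (90:10 acetone-water, dried), then one to five second-instar larvae were added. Mortality (%) was scored after five to seven days at 25° C. under 14:10 light-dark and averaged across the wells.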

SMILES | YFM (Biological Results, rating) [1] | pest or weed control at 50 µg/cm2 [2] [%] | pest or weed control at 50 µg/cm2 [3] [%]
N#Cc1cc(F)ccc1NC(=O)c1cc(NC(=O)[C@H]2[C@H](c3cc(Cl)cc(Br)c3)C2(Cl)Cl)ccc1Cl (relative stereo) [F333, 5-(trans-3-(3-Bromo-5-chlorophenyl)-2,2-dichlorocyclopropane-1-carboxamido)-2-chloro-N-(2-cyano-4-fluorophenyl)benzamide] | A (80-100) | 50 to 100 | 50 to 100
Cc1cc(NC(=O)OC(C)(C)C)ccc1NC(=O)c1cc(NC(=O)[C@H]2[C@H](c3ccc(Cl)c(Br)c3)C2(Cl)Cl)ccc1Cl (relative stereo) [F334, tert-Butyl (4-(5-(trans-3-(3-bromo-4-chlorophenyl)-2,2-dichlorocyclopropane-1-carboxamido)-2-chlorobenzamido)-3-methylphenyl)carbamate] | A (80-100) | 50 to 100 | 50 to 100
Cc1cc(N)ccc1NC(=O)c1cc(NC(=O)[C@H]2[C@H](c3cc(Cl)cc(Br)c3)C2(Cl)Cl)ccc1Cl (relative stereo) [F337, N-(4-Amino-2-methylphenyl)-5-(trans-3-(3-bromo-5-chlorophenyl)-2,2-dichlorocyclopropane-1-carboxamido)-2-chlorobenzamide] | A (80-100) | 50 to 100 | 50 to 100
Nc1c(F)ccc(NC(=O)c2cc(NC(=O)[C@H]3[C@H](c4cc(Cl)cc(Br)c4)C3(Cl)Cl)ccc2Cl)c1F (relative stereo) [F339, N-(3-Amino-2,4-difluorophenyl)-5-(trans-3-(3-bromo-5-chlorophenyl)-2,2-dichlorocyclopropane-1-carboxamido)-2-chlorobenzamide] | A (80-100) | 50 to 100 | 50 to 100
N#Cc1cc(F)ccc1NC(=O)c1cc(NC(=O)[C@H]2[C@H](c3cccc(C(F)(F)F)c3)C2(Cl)Cl)ccc1Cl (relative stereo) [F340, trans-2-Chloro-N-(2-cyano-4-fluorophenyl)-5-(2,2-dichloro-3-(3-(trifluoromethyl)phenyl)cyclopropane-1-carboxamido)benzamide] | A (80-100) | 50 to 100 | 50 to 100
Nc1c(F)ccc(NC(=O)c2cc(NC(=O)[C@H]3[C@H](c4cccc(C(F)(F)F)c4)C3(Cl)Cl)ccc2Cl)c1F (relative stereo) [F341, trans-N-(3-Amino-2,4-difluorophenyl)-2-chloro-5-(2,2-dichloro-3-(3-(trifluoromethyl)phenyl)cyclopropane-1-carboxamido)benzamide] | A (80-100) | 50 to 100 | 50 to 100
N#Cc1cc(Cl)cc([C@H]2[C@H](C(=O)Nc3ccc(Cl)c(C(=O)Nc4ncc(F)cc4F)c3)C2(Cl)Cl)c1 (relative stereo) [F342, trans-2-Chloro-5-(2,2-dichloro-3-(3-chloro-5-cyanophenyl)cyclopropane-1-carboxamido)-N-(3,5-difluoropyridin-2-yl)benzamide] | A (80-100) | 50 to 100 | 50 to 100
N#Cc1cc(Cl)cc([C@H]2[C@H](C(=O)Nc3ccc(Cl)c(C(=O)Nc4ccc(F)cc4C#N)c3)C2(Cl)Cl)c1 (relative stereo) [F343, trans-2-Chloro-N-(2-cyano-4-fluorophenyl)-5-(2,2-dichloro-3-(3-chloro-5-cyanophenyl)cyclopropane-1-carboxamido)benzamide] | A (80-100) | 50 to 100 | 50 to 100
